From PMC10432605 (Blood Advances, 2023)
“And” between values parts separate entries of the source, which are not always exact repeats. Identical values can stand only once. “Also recorded” adds a separate entry of the source. Like-named read-outs stand apart in the source and are kept apart here.

How the values were obtained:
patients with r/r MCL [1] = details: cited from earlier work
patients = details: cited from earlier work
patients with r/r MCL [2] = test: phase 1/2 study efficacy; type: in vivo, human
patients with r/r MCL [3] = test: phase 1/2 study safety; type: in vivo, human
[4] = pharmacokinetics in patients with r/r MCL
[5] = PET assessment, median follow-up 18.4 months
[6] = ref 10 (ibrutinib), 14 (acalabrutinib), 15 (zanubrutinib)
[7] = 29 patients with best response CR
[8] = IRC-assessed, n=106, follow-up 23.8 mo
[9] = Investigator-assessed, n=106, follow-up 23.8 mo

## C=CC(=O)N1CCC([C@@H]2CCNc3c(C(N)=O)c(-c4ccc(Oc5ccccc5)cc4)nn32)CC1 [zanubrutinib]
Patients with r/r MCL [1]; [5]
  CR: 68.6%
  ORR: 84%
Patients with r/r MCL [1]
  median TTR: 2.8 months
Patients with r/r MCL [1]; zanubrutinib trial
  median DOR: 19.5 months
  median PFS: 22.1 months
patients
  major hemorrhage: 5.4%
  rate of treatment discontinuation: 12.5%
patients; [6]
  incidence of diarrhea: 23%
  incidence of second malignancy: 14%

## C=CC(=O)N1CCC(c2ccc(C(N)=O)c(-c3ccc(Oc4ccccc4)cc3)n2)CC1 [orelabrutinib]
Patients with r/r MCL [2]; [7]
  DOR rate at 24 months: ~80%
  OS at 24 months: ~100%
  PFS rate at 24 months: ~80%
Patients with r/r MCL [2]; CT/MRI, baseline median SPD 2514.4 mm^2
  median reduction percentage in the SPD of target lesions: 87.2%
Patients with r/r MCL [2]; IRC assessment, n=106
  patients with objective response: 86 patients
Patients with r/r MCL [2]; IRC-assessed
  median DOR: 22.9 months
Patients with r/r MCL [2]; [8]
  CR: 27.4%
  DCR: 86.8 (78.8-92.6) %
  PD: 8.5%
  PR: 53.8%
Patients with r/r MCL [2]; IRC-assessed, n=106, median follow-up 23.8 mo
  ORR: 81.1 (72.4-88.1) %
Patients with r/r MCL [2]; IRC, follow-up 10.5 mo
  CR: 25.5%
Patients with r/r MCL [2]; [9]
  CR: 34.9%
  DCR: 87.7 (79.9-93.3) %
  ORR: 82.1 (73.4-88.9) %
  PD: 5.7%
  PR: 47.2%
Patients with r/r MCL [2]; full analysis set
  median PFS: 22.0 months and 22 months
Patients with r/r MCL [2]; investigator assessment, n=106
  patients with objective response: 87 patients
Patients with r/r MCL [2]; n=106
  median TTR: 1.9 months
Patients with r/r MCL [2]; subgroup Age ≥65
  ORR (95% CI), IRC: 83.3%
Patients with r/r MCL [2]; subgroup Baseline Splenomegaly Yes
  ORR (95% CI), IRC: 66.7%
Patients with r/r MCL [2]; subgroup Ki-67 ≥30%
  ORR (95% CI), IRC: 79.4%
Patients with r/r MCL [2]; subgroup Prior CD20 Antibody Therapy No
  ORR (95% CI), IRC: 91.7%
Patients with r/r MCL [2]; subgroup Prior lines of therapy ≥2
  ORR (95% CI), IRC: 75.9%
Patients with r/r MCL [2]; subgroup Tumor Stage III/IV
  ORR (95% CI), IRC: 80%
Patients with r/r MCL [2]; subgroup longest target lesion ≥10 cm (bulky disease)
  ORR (95% CI), IRC: 81.8%
Patients with r/r MCL [3]; cycle 1, deemed unrelated to treatment
  atrial fibrillation, grade 1: 1 episode
Patients with r/r MCL [3]; n=106
  AEs leading to discontinuation of treatment: 4.7%
  Alanine aminotransferase increase (any grade): Incidence: 10.4%
  Alanine aminotransferase increase (any grade): Number of patients: 11
  All TEAEs: Incidence: 95.3%
  All TEAEs: Number of patients: 101
  All grade ≥3 TEAEs: Incidence: 51.9%
  All grade ≥3 TEAEs: Number of patients: 55
  Anemia (any grade): Incidence: 19.8%
  Anemia (any grade): Number of patients: 21
  Anemia (grade ≥3): Incidence: 7.5%
  Anemia (grade ≥3): Number of patients: 8
  Cough (any grade): Incidence: 16.0%
  Cough (any grade): Number of patients: 17
  Diarrhea (any grade): Incidence: 11.3%
  Diarrhea (any grade): Number of patients: 12
  Disease progression (grade ≥3 AE): Incidence: 4.7%
  Disease progression (grade ≥3 AE): Number of patients: 5
  Grade 3 or higher infection events: 14.2%
  Hematuria (any grade): Incidence: 10.4%
  Hematuria (any grade): Number of patients: 11
  Hyperglycemia (any grade): Incidence: 12.3%
  Hyperglycemia (any grade): Number of patients: 13
  Hypertension (any grade): Incidence: 17%
  Hypertension (any grade): Number of patients: 18
  Hypertension (grade ≥3): Incidence: 5.7%
  Hypertension (grade ≥3): Number of patients: 6
  Hypoalbuminemia (any grade): Incidence: 10.4%
  Hypoalbuminemia (any grade): Number of patients: 11
  Hypokalemia (any grade): Incidence: 17.0%
  Hypokalemia (any grade): Number of patients: 18
  Hypokalemia (grade ≥3): Incidence: 2.8%
  Hypokalemia (grade ≥3): Number of patients: 3
  Leukocytosis (grade ≥3): Incidence: 3.8%
  Leukocytosis (grade ≥3): Number of patients: 4
  Leukopenia (any grade): Incidence: 19.8%
  Leukopenia (any grade): Number of patients: 21
  Lymphocytosis (grade ≥3): Incidence: 3.8%
  Lymphocytosis (grade ≥3): Number of patients: 4
  Neutropenia (any grade): Incidence: 24.5%
  Neutropenia (any grade): Number of patients: 26
  Neutropenia (grade ≥3): Incidence: 8.5%
  Neutropenia (grade ≥3): Number of patients: 9
  Pneumonia (any grade): Incidence: 11.3%
  Pneumonia (any grade): Number of patients: 12
  Pneumonia (grade ≥3): Incidence: 5.7%
  Pneumonia (grade ≥3): Number of patients: 6
  Pneumonitis (any grade): Incidence: 17.9%
  Pneumonitis (any grade): Number of patients: 19
  Pneumonitis (grade ≥3): Incidence: 3.8%
  Pneumonitis (grade ≥3): Number of patients: 4
  Prolonged QT interval (any grade): Incidence: 11.3%
  Prolonged QT interval (any grade): Number of patients: 12
  Pyrexia (any grade): Incidence: 12.3%
  Pyrexia (any grade): Number of patients: 13
  Rash (any grade): Incidence: 17.0%
  Rash (any grade): Number of patients: 18
  SAE Pneumonia: Incidence: 5.7%
  SAE Pneumonitis: Incidence: 4.7%
  SAE Progressive disease: Incidence: 4.7%
  Soft tissue infection (grade ≥3): Incidence: 2.8%
  Soft tissue infection (grade ≥3): Number of patients: 3
  Thrombocytopenia (any grade): Incidence: 34.0%
  Thrombocytopenia (any grade): Number of patients: 36
  Thrombocytopenia (grade ≥3): Incidence: 13.2%
  Thrombocytopenia (grade ≥3): Number of patients: 14
  Upper respiratory tract infection (any grade): Incidence: 27.4%
  Upper respiratory tract infection (any grade): Number of patients: 29
  Weight increase (any grade): Incidence: 11.3%
  Weight increase (any grade): Number of patients: 12
  bleeding events (any): 34.9%
  bleeding events grade 1: 31.1%
  bleeding events grade 2: 3.8%
  death from infection due to acute myeloid leukemia: 1%
  death from lung infection due to the common cold: 1%
  deaths due to drug-related AEs (fatal TRAEs): no fatal TRAEs were reported; also recorded: No deaths due to drug-related AEs were reported
  deaths from AEs deemed unrelated to treatment: 2%
  deaths from disease progression: 15%
  diarrhea judged as related to treatment: 3.8%
  discontinued treatment because of drug-related AEs: 2.8%
  drug-related grade 3 or higher infection events: 6.6%
  drug-related infection events: 34%
  drug-related pneumonia: 7.5%
  drug-related upper respiratory tract infection: 13.2%
  grade 3 or higher second primary malignancy, atrial fibrillation/flutter, diarrhea, or bleeding events: No grade 3 or higher second primary malignancy, atrial fibrillation/flutter, diarrhea, or bleeding events were observed
  major hemorrhage (grade 3 or higher, serious, or any grade CNS bleeding): No patient experienced major hemorrhage
  microscopic hematuria: 6.6%
  patients who died during the study: 27 patients
  patients with treatment-related grade 3 or higher AEs: 34.9%
  petechiae: 4.7%
  proportion of AEs that were grade 1 or 2: 89%
  purpura: 4.7%
  rate of second malignancy: 2.8%
  second primary malignancy: 3 patients
  treatment-related AEs leading to dose interruption: 17%
  treatment-related anemia: 14.2%
  treatment-related decreases in neutrophils: 22.6%
  treatment-related decreases in platelets: 32.1%
  treatment-related decreases in white blood cells: 18.9%
  treatment-related hypertension: 15.1%
[4]; human, in vivo, 150 mg, Tmax (median, minimum-maximum), Day 1 single, 150 mg
  Tmax: 2 h
[4]; patients with r/r MCL
  Coefficients of variation of pharmacokinetic parameters: < 30%
